Square brackets hold non-standard residues; d marks the D form. Peptide text beside a SMILES is read from it. Nle = CCCC[C@H](N)C(=O)O
What was measured:
proteasome β5 = proteasome β5 (Homo sapiens, UniProt P28074); experiment: Inhibition of proteasome β5 (chymotrypsin-like) activity, Suc-LLVY-AMC substrate; type: biochemical; conditions: SE in parentheses, n = 2
Description: (§1) Reaction time (min) Reaction time (min)
(§2) Figure S1. Proteasome Inhibitors Modified as Degradation Tags, Related to Figures 2
(§3) (A) Chymotrypsin-like (β5) , trypsin-like (β2) and caspase-like (β1) activities of the pr oteasome were monitor ed by Suc- LLVY-
(§4) AMC (β5 substrate) , Bz- VGR-AMC (β2 substr ate) and Z -LLE-AMC (β1 substrate), respectively. AMC fluorescence was
(§5) m onitor ed by a plate reader with excitation and emission filter s of 360 nm and 460 nm, respectively (DMSO, 30 min = 1) […]

proteasome β2 = proteasome β2 (Homo sapiens, UniProt Q99436); experiment: Inhibition of proteasome β2 (trypsin-like) activity, Bz-VGR-AMC substrate; type: biochemical; conditions: SE in parentheses, n = 2
Description: as §1, §2, §3, §4, §5

proteasome β1 = proteasome β1 (Homo sapiens, UniProt P28072); experiment: Inhibition of proteasome β1 (caspase-like) activity, Z-LLE-AMC substrate; type: biochemical; conditions: SE in parentheses, n = 2
Description: as §1, §2, §3, §4, §5

[1] = target: β5/β2/β1 of the proteasome (Homo sapiens, UniProt P28072+P28074+Q99436); experiment: Proteasomal inhibitory activity, stated in words for all subunits; type: biochemical; conditions: listed as TMP-CANDDY_MLN (1)
Description: as §1, §2, §3, §4, §5

ecDHFR [2] = target: T1, ecDHFR (Escherichia coli, UniProt P0ABQ4); experiment: Cellular thermal shift assay (CETSA) for ecDHFR in HeLa cells; type: binding; conditions: ecDHFR-HA-GFP-expressing HeLa cells, 3 h treatment
T1 construct: expressed in transfected cells; host or cells: HeLa cells (bicistronic construct co-expressing DsRed)
Description: Figure 2 Proof of principle for the CANDDY Strategy. (A) Structures of degraders 1–3 constructed with TMP and each degradation tag (CANDDY_MLN, CANDDY_ALLN, or CANDDY_BTZ). (B) Comparison of proteasomal inhibitory activity of b2 by 1–3 and each proteasome inhibitor. […] Cell extraction was treated with heat for 3 min and then analyzed via immunoblotting. (D) Degradation rates of ecDHFR by 1–3. The same procedure as in (E) was performed except for 24 h. (E) ecDHFR degradation by 1 for 24 h. The ratio of ecDHFR-HA-GFP/DsRed was detected via flow cytometry.

ecDHFR [3] = target: T1, ecDHFR; type: cell-based
Description: Cell extraction was treated with heat for 3 min and then analyzed via immunoblotting. […] The same procedure as in (E) was performed except for 24 h. […] The ratio of ecDHFR-HA-GFP/DsRed was detected via flow cytometry.
HeLa cells co-expressed ecDHF R- HA-GF P and DsRed from a bicistronic construct.
(C) HeLa cells co-expressed ecDHFR-HA-GFP and DsRed from a bicistronic construct. Target-expressing HeLa cells were
treated with a CANDDY molecule (1).

KRAS G12D [4] = target: T2, KRAS G12D (Homo sapiens, UniProt P01116, G12D); experiment: KRAS degradation in a cell-free system with 26S proteasome; type: biochemical; conditions: only 26S proteasome and target protein, 3 h at 37 °C
Description: KRAS G12D (final concentration: 5 ng/µL) and 26S proteasome (final concentration: 8 nM) were incubated with TUS-007 (10, 20, 40 µM), RAS-SOS inhibitor (40 µM), RAS-SOS-NH2 (40 µM), or DMSO in 20 mM Tris-HCl buffer (pH 7.5) containing 20% glycerol for 3 h at 37 °C. To assess the effect of MLN on chemical knockdown, KRAS G12D and 26S proteasome were incubated with DMSO or TUS-007 40 µM in the presence or absence of MLN (1 µM) in the same condition. After centrifugation at 14,000× g for 10 min, the supernatants were analyzed via SDS-PAGE, followed by immunoblotting using an anti-KRAS antibody (1:1000, WH0003845MI, Sigma-Aldrich).

[5] = Solubility (statement in words); type: physicochemical; conditions: reason not used as in vivo control
KRAS G12D [6] = target: KRAS G12D; set-up: method as in PMID 22566140; conditions: cited from earlier work
KRAS G12V = target: T3, KRAS G12V (Homo sapiens, UniProt P01116, G12V); experiment: KRAS G12V-HA-GFP degradation in HeLa cells; type: cell-based; conditions: exogenously expressed, flow cytometry and immunoblotting
T3 construct: expressed in transfected cells; host or cells: HeLa cells
Description: (§6) Figure 3 RAS Chemical Knockdown in vitro. (A) Structures of RAS-SOS inhibitor (4), RAS-SOS-NH2 (5), and TUS-007 as a RAS degrader. (B,C) Assessing the binding affinity of TUS-007 to targets KRAS (G12D, G12V, or wild-type) (B) and proteasome β5 (C) using CETSA. Recombinant KRAS or PSMB5 was treated with vehicle, 4, or TUS-007 for 30 min. The mixture was treated with heat and then analyzed via immunoblotting. […] KRAS-HA-GFP and DsRed-expressing HeLa cells were treated and analyzed via immunoblotting. (F) The same procedure was performed as in (D) (mean ± SEM; n = 3) except for 48 h. (G) Ubiquitination-independent proteasomal KRAS G12D degradation. KRAS G12D-HA-GFP and DsRed-expressing HeLa cells were co-treated with TUS-007 and the NAE inhibitor ([…], […]) or PYR-41 (E1 inhibitor, […]) and then analyzed via flow cytometry. […]
(§7) β5 activity β2 activity β1 activity […]
(§8) Figure S3. Proteasomal Inhibitory Activities of TUS-007 and Degradation of KRAS by TUS-007, Related to Figure 3 […]
(§9) Degradation of mutant (G12D and G12V) and wild- type KRAS pr oteins by TUS- 007 was rescued by treatment with the proteasome inhibitor M LN2238 ([…]). […] KRAS G12D-HA-GFP and DsRed-expressing HeLa cells were co-treated with TUS-007 and 17-AAG (HSP90 inhibitor, 2 ∝M), or VER-155008 (HSP70 inhibitor , 2 ∝M) for 24 h and then analyzed by flow cytometry.

wild-type KRAS = target: T4, wild-type KRAS (Homo sapiens, UniProt P01116); experiment: Wild-type KRAS-HA-GFP degradation in HeLa cells; type: cell-based; conditions: exogenously expressed, flow cytometry and immunoblotting
T4 construct: expressed in transfected cells; host or cells: HeLa cells
Description: as §6, §7, §8, §9

KRAS G12D [7] = target: T2, KRAS G12D; experiment: KRAS G12D-HA-GFP degradation in HeLa cells; type: cell-based; set-up: expressed in transfected cells; host or cells: HeLa cells; conditions: exogenously expressed, flow cytometry and immunoblotting
Description: as §6, §7, §8, §9
Target sequence in this assay (P01116 1-188 isoform P01116-2 G12D): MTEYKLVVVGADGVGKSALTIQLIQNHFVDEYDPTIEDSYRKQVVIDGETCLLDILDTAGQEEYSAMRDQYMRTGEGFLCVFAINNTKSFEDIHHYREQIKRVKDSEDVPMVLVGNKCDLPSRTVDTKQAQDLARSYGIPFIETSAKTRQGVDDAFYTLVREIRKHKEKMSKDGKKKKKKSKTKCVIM

T1 sequence (P0ABQ4 whole entry): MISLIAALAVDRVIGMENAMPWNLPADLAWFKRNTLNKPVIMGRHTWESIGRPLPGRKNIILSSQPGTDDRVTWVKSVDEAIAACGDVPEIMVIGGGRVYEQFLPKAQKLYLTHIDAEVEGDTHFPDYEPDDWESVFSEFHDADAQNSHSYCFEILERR
T4 sequence (P01116 1-188 isoform P01116-2): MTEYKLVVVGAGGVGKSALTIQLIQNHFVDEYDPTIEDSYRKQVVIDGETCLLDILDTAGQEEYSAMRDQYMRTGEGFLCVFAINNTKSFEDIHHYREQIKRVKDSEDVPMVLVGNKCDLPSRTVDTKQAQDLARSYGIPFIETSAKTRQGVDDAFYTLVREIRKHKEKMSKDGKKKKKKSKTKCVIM
T3 sequence (P01116 1-188 isoform P01116-2 G12V): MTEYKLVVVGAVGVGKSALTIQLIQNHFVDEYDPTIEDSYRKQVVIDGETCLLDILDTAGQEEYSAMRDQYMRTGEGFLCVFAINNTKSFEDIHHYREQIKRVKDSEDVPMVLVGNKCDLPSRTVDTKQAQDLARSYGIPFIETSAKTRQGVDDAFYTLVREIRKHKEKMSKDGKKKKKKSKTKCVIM

| SMILES | IC50 (proteasome β5) [µM] | IC50 (proteasome β2) [µM] | IC50 (proteasome β1) [µM] | target affinity for ecDHFR compared with TMP (CETSA) (ecDHFR [2]) | also measured |
| --- | --- | --- | --- | --- | --- |
| CCCC[C@@H](C=O)NC(=O)[C@H](CC(C)C)NC(=O)[C@H](CC(C)C)NC(C)=O [ALLN, reference compound] (Ac-Leu-Leu-[Nle]-aldehyde) | 1 | 4.3 | 9.8 | – | – |
| CC(C)C[C@H](NC(=O)CNC(=O)c1cc(Cl)ccc1Cl)B(O)O [MLN2238, reference compound] | – | 8.9 | 0.029 | – | – |
| COc1cc(Cc2cnc(N)nc2N)cc(OC)c1OCC(=O)NCCCCCCNC(=O)[C@H](CC(C)C)NC(=O)CNC(=O)c1cc(Cl)ccc1Cl [compound 1] | > 160 | > 160 | > 160 | more efficient | proteasomal inhibitory activity (β5, β2, β1) [1]: almost no proteasomal inhibitory activity; ecDHFR degradation (ecDHFR [3]; HeLa cells, 24 h, immunoblotting and flow cytometry (GFP/DsRed)): highest target degradation efficiency; time dependence of ecDHFR degradation (ecDHFR [3]; HeLa cells, flow cytometry): time-dependent ecDHFR degradation; ecDHFR degradation on co-treatment with inhibitors of E1 or E3 (ecDHFR [3]; co-treatment with NAE inhibitor (E3) or PYR-41 (E1), flow cytometry): did not inhibit ecDHFR degradation |
| CCCC[C@H](NC(=O)[C@H](CC(C)C)NC(=O)[C@H](CC(C)C)NC(C)=O)C(=O)NCCCCCCNC(=O)COc1c(OC)cc(Cc2cnc(N)nc2N)cc1OC [compound 2] | 46.2 | > 160 | > 160 | more efficient | – |
| COc1cc(Cc2cnc(N)nc2N)cc(OC)c1OCC(=O)NCCCCCCNC(=O)[C@H](CC(C)C)NC(=O)[C@H](Cc1ccccc1)NC(=O)c1cnccn1 [compound 3] | > 160 | > 160 | > 160 | lower | – |
| CC[C@H](C)[C@H](N)C(=O)Nc1ccc2nc(Cc3c[nH]c4ccccc34)[nH]c2c1 [compound 4, reference compound] | – | – | – | – | degradation of KRAS G12D in cell-free system (KRAS G12D [4]): not; solubility [5]: low solubility; Kd (KRAS G12D [6]): 190 µM |
| CC[C@H](C)[C@H](NC(=O)CCCCCCN)C(=O)Nc1ccc2[nH]c(Cc3c[nH]c4ccccc34)nc2c1 [compound 5] | – | – | – | – | degradation of KRAS G12D in cell-free system (KRAS G12D [4]): not; KRAS G12V degradation in HeLa cells (KRAS G12V): no degradation; wild-type KRAS degradation in HeLa cells (wild-type KRAS): no degradation; solubility [5]: low solubility; KRAS G12D degradation in HeLa cells (KRAS G12D [7]): no degradation |

Reference: article PMC10386196, “A First-Class Degrader Candidate Targeting Both KRAS G12D and G12V Mediated by CANDDY Technology Independent of Ubiquitination” (Molecules, 2023)
